The source of these data is patent publication US6951731B2, “Method for evaluating inhibition of aspartic proteases” (priority 2001, dated 2005).

Read-outs that look alike come from different tables or passages of the source. Where a SMILES comes first, the peptide text is derived from it. [ ]: non-standard residue; d: D form. The star is where a group is joined. Sta = CC(C)C[C@H](N)[C@@H](O)CC(=O)O; Isovaleryl = CC(C)CC(=O)*

The target in experiment [1] is T1, pepsin (Sus scrofa, UniProt P00791).
T1 construct: formed from pepsinogen A by limited proteolysis
T1 sequence (P00791 60-385): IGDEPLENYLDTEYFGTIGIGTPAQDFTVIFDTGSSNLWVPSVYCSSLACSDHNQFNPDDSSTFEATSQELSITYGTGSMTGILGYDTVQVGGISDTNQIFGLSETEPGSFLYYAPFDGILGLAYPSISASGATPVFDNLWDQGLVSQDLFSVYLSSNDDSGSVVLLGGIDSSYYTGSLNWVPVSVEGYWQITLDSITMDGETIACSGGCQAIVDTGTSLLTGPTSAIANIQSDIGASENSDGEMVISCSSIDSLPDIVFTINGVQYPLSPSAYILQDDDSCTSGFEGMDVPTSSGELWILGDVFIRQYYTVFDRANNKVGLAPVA
The note with it: cited from earlier work; for D2Okcat (solvent isotope effect): pepsin, synthetic peptide substrate.

The target in experiment [2] is T2, HIV-1 protease (Human immunodeficiency virus type 1 group M subtype B, UniProt P04585). The note with it: complex between HIV-1 protease and pepstatin; cited from earlier work.
The target in experiment [3] is T1, pepsin. The conditions noted are these: cited from earlier work.
Experiment [4] addresses T1, pepsin. As to the kind of experiment: Kinetics and solvent isotope effects of pepsin acting on synthetic substrates. In kind it is biochemical, porcine. The conditions noted are these: for kcat (fitted pH-independent kinetic constant): re-analysis of Hunkapillar & Richards data. How it is done:
FIG. 2: Kinetics of pepsin acting on N-trifluroacetyl-L-phenylalanine as a function of pH (A) and pD (B). The fitted pH-independent kinetic constants are kcat=0.038±0.006 min^−1 in H2O and kcat=[…] in D2O. The dotted line indicates the range of carboxyl pKs consistent with the fitted line in D2O.
The response of low-barrier hydrogen bonds to D2O, as described herein, finally solves this 92 year-old mystery and simultaneously provides a means to evaluate the efficacy of potential aspartic protease inhibitors. During hydrolysis of N-trifluroacetyl-L-phenylalanine, Hunkapillar & Richards^10 observed bell-shaped pH profiles which were shifted to the right, but the upper pK profiles shifted to the left, thereby bringing them closer together. Normally, D2O shifts all pKs to the right about half a unit because of the fractionation factor of H3O^+.^11
The fit to the BELL rate equation of data obtained in H2O converged with pKs of 2.9±0.1 and 4.5±0.1, while those in D2O converged to the default separation of only 0.6 units, the minimum that is statistically possible. The fitted curve in FIG. 2B is the same for identical pKs of 3.84±0.08 or separated pKs of 3.5 and 4.1—or anything in between. Unknown in 1972, low-barrier hydrogen bonds are now understood to cause opposite shifts in the pKs of the conjugate bases participating in the bond. Both protonation and deprotonation of the low-barrier hydrogen bond complex are made more difficult, which shifts apparent pKs outwards in H2O but less so in D2O.^7
By comparing the maximal values of their fitted curves, Hunkapillar & Richards estimated that ^D2Okcat≈3. However, the appropriate comparison note between the absolute maxima, but between the pH-independent maxima,^11 represented by the horizontal bars in FIGS. 2A and 2B. This ratio yields ^D2Okcat=1.8±0.4 for pKs separated by 0.6 units, and lower values if the fractionation factor is greater than 0.3. […]

Experiment [5] concerns the target T2, HIV-1 protease. The conditions noted are these: cited from earlier work.
The mark [6] stands for this setting: product inhibition, substrate Ac-Ser-Glu-Asp-Tyr*Phe-Leu-Asp-Gly-NH2 (SEQ. ID. NO: 2), read-out: Kii.
The mark [7] stands for this setting: product inhibition, substrate Ac-Ser-Glu-Asp-Tyr*Phe-Leu-Asp-Gly-NH2 (SEQ. ID. NO: 2), read-out: Kis.
[8] abbreviates: substrate Ac-Ser-Glu-Asp-Tyr*Phe-Leu-Asp-Gly-NH2 (SEQ. ID. NO: 2), KH/KD.
The mark [9] stands for this setting: pH 4.5, substrate Ac-Ser-Glu-Asp-Tyr*Phe-Val-Val-NH2 (SEQ. ID. NO: 6).

Take Leu-Ser-Nph-Nle-Ala-Leu-OMe: the “D2Okcat (solvent isotope effect)” value on pepsin [1] was 1.51±0.02.
In the case of `CC(C)CC(=O)N[C@H](C(=O)N[C@H](C(=O)N[C@@H](CC(C)C)[C@@H](O)CC(=O)N[C@@H](C)C(=O)N[C@@H](CC(C)C)[C@@H](O)CC(=O)O)C(C)C)C(C)C` [pepstatin] (Isovaleryl-VV[Sta]A[Sta]-OH), at HIV-1 protease [2], the “Low-barrier hydrogen bond signal in proton NMR of the inhibited complex” value is on record as “negative results”. The “D2Ok on slow onset of inhibition” value on pepsin [3] (pre-incubation experiments with free enzyme) was 0.69±0.09; on pepsin [3] (when catalysis is in progress), 1.25±0.09.
In the case of Lys-Lys-Ala-Lys-Phe-Nph-Arg-Leu, the “D2Okcat (solvent isotope effect)” value on pepsin [1] was 2.02±0.15.
Take `O=C(O)[C@H](Cc1ccccc1)NC(=O)C(F)(F)F` [N-trifluroacetyl-L-phenylalanine]: the “kcat (fitted pH-independent kinetic constant)” value at pepsin [4] (in D2O) came out at 0.022±2 min^−1; at pepsin [4] (in H2O), 0.038±0.006 min^−1. Moreover, the D2Okcat at pepsin [4] (ratio of pH-independent maxima, pKs separated by 0.6 units) is on record as 1.8±0.4; on pepsin [1] (estimated by Hunkapillar & Richards from maximal values of fitted curves) it was “≈ 3”.
In the case of “Phe-Leu-Asp-Gly-NH2 (FLDG; printed: Phe-Leu-Asp-Gly-)”, the Ki in the experiment with HIV-1 protease [5] (setting [6]) was 4 mM. The Ki with HIV-1 protease [5] (setting [7]) is 12 mM. Also, in the experiment with HIV-1 protease [5] (setting [8]), the “D2OKii (solvent isotope effect on Kii)” value is listed as 3.0 ± 0.9 and the “D2OKis (solvent isotope effect on Kis)” value is 1.1 ± 0.4.
As for RASEDY [Ac-Arg-Ala-Ser-Glu-Asp-Tyr], the Ki was 0.23 mM on HIV-1 protease [5] (pH 3.5, substrate Ac-Ser-Glu-Asp-Tyr*Phe-Val-Val-NH2 (SEQ. ID. NO: 6), pattern uncompetitive, read-out: Kii); 8 mM at HIV-1 protease [5] (pH 6, substrate printed Ac-Ser-Glu-Asp-Tyr*Phe-Leu-Asp-Gly-NH2 (SEQ. ID. NO: 4), read-out: Kii); 7 mM at HIV-1 protease [5] (pH 6, substrate printed Ac-Ser-Glu-Asp-Tyr*Phe-Leu-Asp-Gly-NH2 (SEQ. ID. NO: 4), read-out: Kis). For the same compound, the “D2OKii (solvent isotope effect on Kii)” value at HIV-1 protease [5] (setting [9]) is listed as 1.0 ± 0.8; at HIV-1 protease [5] (pH 6, substrate SEQ. ID. NO: 4) it was 3.8 ± 1.3. For the same compound, the “D2OKis (solvent isotope effect on Kis)” value at HIV-1 protease [5] (setting [9]) is reported as 1.2 ± 0.4; at HIV-1 protease [5] (pH 6, substrate SEQ. ID. NO: 4), 4.2 ± 1.6.
Take “Ac-Ser-Glu-Asp-Tyr (SEDY; printed: Ser-Glu-Asp-Tyr)”: the Ki with HIV-1 protease [5] (setting [6]) is 12 mM. The Ki with HIV-1 protease [5] (setting [7]) is 3.8 mM. Also, in the experiment with HIV-1 protease [5] (setting [8]), the “D2OKii (solvent isotope effect on Kii)” value is 3.8 ± 1.3 and the “D2OKis (solvent isotope effect on Kis)” value was 4.2 ± 1.6.
